Source: US20250034168A1, “NITROGEN-CONTAINING HETEROCYCLIC DERIVATIVE PARP INHIBITOR AND USE THEREOF” (XIZANG HAISCO PHARMACEUTICAL CO., LTD., priority 2021, published 2025)

What was measured:
PARP-1 enzyme = PARP-1 enzyme (Homo sapiens (Human), UniProt P09874); test: PARP-1 enzyme activity test; format: biochemical
Protocol: PARP-1 chemical […] detection kit was purchased from BPS Bioscience. The histone solution in the kit was diluted 5× with 1×PBS, and 25 μL of the diluted histone solution was added to a microwell plate and incubated overnight at 4° C. After the incubation, the plate was washed three times with PBST (0.05% Tween-20). 100 μL of the blocking solution was added to the microwell plate and incubated at 25° C. for 90 minutes. After the incubation, the plate was washed three times with PBST. 2.5 μL of compounds at different concentrations diluted in test buffer and 12.5 μL of substrate mixed solution (1.25 μL 10×PARP test buffer; 1.25 μL 10×PARP test mixed solution; 2.5 μL Activated DNA, 7.5 μL double-distilled water) were added to the microwell plate. The PARP-1 enzyme was diluted to 2 ng/μL, 10 μL of the diluent was added to the microwell plate, and the reaction system was incubated at 25° C. for 60 minutes.
(§1) After the incubation, the plate was washed three times with PBST. Streptavidin-HRP was diluted 50× with a blocking solution, and 25 μL of the diluent was added to the microwell plate and incubated at 25° C. for 30 minutes. After the incubation, the plate was washed three times with PBST. ELISA ECL substrate A and substrate B were mixed at a ratio of 1:1 (v/v), 50 μL of the mixture was added to the microwell plate, and the chemiluminescence value was read.
The inhibition rate was calculated according to formula 1, where RLUsample was the readout of the compound well, RLUmax was the readout of the solvent control well, and RLUmin was the readout of the control well without the PARP-1 enzyme. Curve fitting was performed by four parameters (log(inhibitor) vs. response—Variable slope) using GraphPad Prism software, and the IC50 value was calculated.

[1] = Pharmacokinetic test in rats; format: in vivo, SD rats
Protocol: (§2) • 5.1.1 Experimental animals: male SD rats, about 220 g, 6-8 weeks old, 6 rats/compound, purchased from Chengdu Ddossy Experimental Animals Co., Ltd. • 5.1.2 Experimental design: on the day of the test, 6 SD rats were randomly grouped according to their body weight; the animals were fasted with water available for 12 to 14 h one day before the administration, and were fed 4 h after the administration.
(§3) Before and after the administration, 0.15 ml of blood was taken from the orbit of the animals under isoflurane anesthesia and placed in an EDTAK2 centrifuge tube. The blood was centrifuged at 5000 rpm and 4° C. for 10 min to collect plasma. The blood collection time points for the intravenous administration group and intragastric administration group were: 0, 5 min, 15 min, 30 min, 1 h, 2 h, 4 h, 6 h, 8 h, and 24 h. Before analysis and detection, all samples were stored at −80° C., and a quantitative analysis of samples was performed using LC-MS/MS.

PARP7 = PARP7 (Homo sapiens (Human), UniProt Q7Z3E1); test: PARP7 enzyme activity test; format: biochemical
Protocol: PARP2 and PARP7 chemical […] detection kits were both purchased from BPS Bioscience. The histone solution in the kit was diluted 5× with 1×PBS, and 25 μL of the diluted histone solution was added to a microwell plate and incubated overnight at 4° C. After the incubation, the plate was washed three times with PBST (0.05% Tween-20). 100 μL of the blocking solution was added to the microwell plate and incubated at 25° C. for 90 minutes. After the incubation, the plate was washed three times with PBST. 2.5 μL of compound 4 diluted in test buffer and 5 μL of substrate mixed solution were added to the microwell plate. 5 μL of the diluted PARP enzyme was added to the microwell plate, and the reaction system was incubated at 25° C. for 60 minutes.
as §1, with “(v/v), 25” for “(v/v), 50”, “read. […]” for “read.”

[2] = Pharmacokinetic test in mice; format: in vivo, ICR mice
Protocol: as §2, with “5.2.1” for “5.1.1”, “ICR mice, 20-25” for “SD rats, about 220”, “18 mice/compound.” for “6-8 weeks old, 6 rats/compound,”, “5.2.2” for “5.1.2”, “18 ICR mice” for “6 SD rats”, “weights.” for “weight;”
as §3, with “0.06 mL” for “0.15 ml”, “intravenous” for “intravenous administration”, “0 min,” for “0,”

[3] = male, Sprague-Dawley, iv, rat plasma, i.v. 2.5 mg/kg
[4] = male, ICR, iv, mouse plasma, i.v. 2.5 mg/kg

Sequence of PARP-1 enzyme (P09874 whole entry): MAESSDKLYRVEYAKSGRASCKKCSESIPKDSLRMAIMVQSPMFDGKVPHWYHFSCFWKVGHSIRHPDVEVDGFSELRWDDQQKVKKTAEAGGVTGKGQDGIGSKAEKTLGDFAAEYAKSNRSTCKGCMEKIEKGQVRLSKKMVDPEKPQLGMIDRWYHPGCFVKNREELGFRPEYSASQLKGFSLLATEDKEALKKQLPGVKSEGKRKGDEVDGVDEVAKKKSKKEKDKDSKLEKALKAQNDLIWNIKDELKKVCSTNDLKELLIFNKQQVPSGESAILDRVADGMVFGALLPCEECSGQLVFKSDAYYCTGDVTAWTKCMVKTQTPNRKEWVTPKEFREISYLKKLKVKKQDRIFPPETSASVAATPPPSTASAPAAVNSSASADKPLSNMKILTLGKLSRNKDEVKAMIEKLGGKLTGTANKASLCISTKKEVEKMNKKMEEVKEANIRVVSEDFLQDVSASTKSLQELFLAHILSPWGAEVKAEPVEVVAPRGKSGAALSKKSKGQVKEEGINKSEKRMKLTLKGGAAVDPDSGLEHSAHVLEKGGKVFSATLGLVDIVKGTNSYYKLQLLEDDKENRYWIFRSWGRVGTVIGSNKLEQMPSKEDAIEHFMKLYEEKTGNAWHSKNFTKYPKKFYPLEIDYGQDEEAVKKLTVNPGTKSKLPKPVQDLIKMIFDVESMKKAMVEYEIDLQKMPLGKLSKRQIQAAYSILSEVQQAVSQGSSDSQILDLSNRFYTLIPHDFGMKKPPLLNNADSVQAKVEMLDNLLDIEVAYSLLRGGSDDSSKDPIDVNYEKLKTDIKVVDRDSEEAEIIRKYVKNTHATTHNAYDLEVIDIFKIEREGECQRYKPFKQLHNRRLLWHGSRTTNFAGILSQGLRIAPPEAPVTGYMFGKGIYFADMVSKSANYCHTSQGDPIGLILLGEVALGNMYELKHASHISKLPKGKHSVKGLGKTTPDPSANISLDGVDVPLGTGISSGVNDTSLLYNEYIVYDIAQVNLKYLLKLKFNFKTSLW
Sequence of PARP7 (Q7Z3E1 whole entry): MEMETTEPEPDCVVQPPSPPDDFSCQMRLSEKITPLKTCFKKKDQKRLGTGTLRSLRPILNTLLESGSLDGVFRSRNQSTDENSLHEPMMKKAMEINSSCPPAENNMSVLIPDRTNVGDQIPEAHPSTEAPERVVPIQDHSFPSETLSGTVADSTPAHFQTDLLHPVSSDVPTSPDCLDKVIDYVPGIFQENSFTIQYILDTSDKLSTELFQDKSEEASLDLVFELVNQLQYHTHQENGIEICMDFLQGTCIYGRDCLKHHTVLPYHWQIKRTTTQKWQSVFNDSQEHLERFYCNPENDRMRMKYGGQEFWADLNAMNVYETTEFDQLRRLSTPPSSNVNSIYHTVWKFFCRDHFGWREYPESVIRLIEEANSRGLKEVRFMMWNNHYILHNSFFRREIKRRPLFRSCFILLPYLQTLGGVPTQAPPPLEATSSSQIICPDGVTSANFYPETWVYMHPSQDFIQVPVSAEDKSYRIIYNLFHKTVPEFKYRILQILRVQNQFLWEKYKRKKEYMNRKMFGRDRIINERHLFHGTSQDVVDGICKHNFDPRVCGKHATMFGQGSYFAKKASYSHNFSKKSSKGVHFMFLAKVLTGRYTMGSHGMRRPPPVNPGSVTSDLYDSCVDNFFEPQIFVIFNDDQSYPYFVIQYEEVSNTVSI

For `CCc1cc2ncc(CN3CC=C(c4ccc(C(=O)NC)nc4)CC3)cc2[nH]c1=O` [Compound 14, 1′-((7-ethyl-6-oxo-5,6-dihydro-1,5-naphthyridin-3-yl)methyl)-N-methyl-1′,2′,3′,6′-tetrahydro-[3,4′-bipyridine]-6-carboxamide], which IC50 (PARP-1 enzyme) is on record?
The IC50 was 0.00059 µM.

And the AUC(0-t) [1, 3]?
The AUC(0-t) was 84.2 µg·h/mL.

What about the clearance [1, 3] of the same molecule?
Its clearance is 0.494 mL/min/kg.

And the Vd ([1]; male, Sprague-Dawley, iv, rat plasma, i.v. 2.5 mg/kg, read-out: Vdss)?
The Vd was 0.164 L/kg.

What about the AUC(0-t) ([1]; male, Sprague-Dawley, po, rat plasma, i.g. 10 mg/kg) of the same molecule?
Its AUC(0-t) is 248 µg·h/mL.

What about the F ([1]; rat, i.g. 10 mg/kg) of the same molecule?
Its F is 73.8%.

And the IC50 (PARP7)?
Its IC50 is 0.04 µM.

What about the AUC(0-t) [2, 4] of the same molecule?
The AUC(0-t) was 220 µg·h/mL.

What about the clearance [2, 4] of the same molecule?
Its clearance is 0.164 mL/min/kg.

And the Vd ([2]; male, ICR, iv, mouse plasma, i.v. 2.5 mg/kg, read-out: Vdss)?
Its Vd is 0.112 L/kg.

What about the AUC(0-t) ([2]; male, ICR, po, mouse plasma, i.g. 10 mg/kg) of the same molecule?
The AUC(0-t) was 829 µg·h/mL.

What about the F ([2]; mouse, i.g. 10 mg/kg) of the same molecule?
The F was 94.3%.
